Data taken from patent US20180360964A1, “PHARMACEUTICAL COMPOSITION AND A METHOD FOR PRODUCING THEREOF” (priority 2017, published 2018).
Each block holds one compound with its values, some of them ahead of it.

Key:
[1] = Interaction efficiency of drugs with apatite-based matrix (HPLC); assay type: physicochemical; design: concentration or dose not given beside the values; conditions: for Interaction efficiency (%) of each drug with apatite-based matrix: Table 1, mean±SD, triplicate
Description: Apatite-based matrix as prepared above was allowed to interact with three types of drugs including cyclophosphamide (Cyp), methotrexate (Mtx) and 5-fluorouracil (5-FU) to form complexes. The complexes were then centrifuged at 13,000 rpm for 15 min and supernatant was discarded without disturbing the pellet. 100 μL of media was added to pellet to form a suspension and the suspension was used to perform high performance liquid chromatography (HPLC) analysis to estimate the concentration of drugs that could be adsorbed to the apatite-based matrix and also to evaluate the interaction efficiency of drugs with apatite-based matrix. The concentration of the drugs present in the supernatant was calculated from the peak area, using the standard curves. Data were represented as interaction efficiency (%) of drugs with apatite-based matrix, calculated using the following formula: […]
Where [X]free drug and [X]CA-drug are the concentrations of free drug and drug-loaded apatite-based matrix in the supernatant calculated form the standard curves and [X]initial is the total concentration of drugs used to perform HPLC or the total concentration initially mixed for preparation of apatite-drug formulations. Each experiment was done in triplicate and shown as mean±SD.
(7) Ca^2+ and Sr^2+ Effects of Ca^2+ and Sr^2+ on apatite-based matrix formation were analysed by adding exogenous CaCl2 and SrCl2 in apatite-based matrix fabrication respectively, while keeping other salts being constant. The size of the apatite-based matrix formed with exogenous CaCl2 and SrCl2 were measured, followed by evaluation on the interaction efficiency (%) of apatite-based matrix with drugs which is indicated in Table 2.

[2] = Cellular uptake of Dox-loaded CA NPs and CMCA NPs; assay type: cell-based
Text: Further, the interaction between CMCA NP and the drug i.e. doxorubicin (denoted briefly as Dox) was studied by comparing the size and binding affinity of CA NP and CMCA NP that were loaded with Dox. The positively charged DOX might bind electrostatically with negatively charged domains (rich in bicarbonate, phosphate or citrate) on CMCA NP and CA NP, causing the net charge of the DOX-loaded CMCA NPs and CA NPs more electropositive than that of the free NPs, as shown in FIGS. 28 (b) and (d). […] In addition, the evaluation on cellular uptake of Dox-loaded CA NPs and CMCA NPs was performed after 1 hour and 4 hours of treatment.

[3] = test system: MCF7 cell line; test: Time-dependent cellular uptake by HPLC; assay type: cell-based
Description: HPLC was performed to determine time-dependent cellular uptake (%) of pharmaceutical composition and also drug-loaded unmodified apatite-based matrix in MCF7 cell line. Apatite-based matrix was formulated with different Ca^2+ concentrations (7 mM, 8 mM and 9 mM) and 20 uM of drug. Free drug (20 uM) was used as control.

[4] = Concentration of detected drug accumulated in tumour after intravenous delivery; assay type: in vivo, mouse; conditions: gemcitabine accumulated in tumour, 4T1-induced breast tumour mice
Description: 4T1 cells were inoculated subcutaneously on the mammary pad of mice. […] The injections were intravenously administered twice within an interval of 3 days to a 4T1 cancer cells-induced syngeneic mouse model of breast cancer. Measurements on tumour volume at day 8, 10, 12, 14, 16, 18, 20 and 22 were taken. The concentration of detected drug in tumour were also measured, followed by observation on bio-distribution of drugs in each organ. Six mice per group were used and data were represented as mean±SD of tumour volume.

Interaction efficiency (%) of each drug with apatite-based matrix [1]: 0% | Interaction efficiency (%) of each drug with apatite-based matrix ([1]; listed as 5-fluorouracil (5-FU)): did not show any affinity | Interaction efficiency (%) of each drug with the apatite-based matrix ([1]; matrix formed with CaCl2): 0% | Interaction efficiency (%) of each drug with the apatite-based matrix ([1]; matrix formed with SrCl2): 1.21 ± 0.56%
Compound: O=c1[nH]cc(F)c(=O)[nH]1 [5-FU, 5-fluorouracil]

Detected Drug Concentration (ng/ml) [4]: 27,03333 ng/ml
Compound: Nc1ccn([C@@H]2O[C@H](CO)[C@@H](O)C2(F)F)c(=O)n1 [Free gemcitabine, gemcitabine]
cellular uptake (%) ([3]; gemcitabine 20 uM, 1 h): 30.5% ± 1.2 | cellular uptake (%) ([3]; gemcitabine 20 uM, 4 h): 50.75% ± 2.3 | cellular uptake (%) ([3]; gemcitabine 20 uM, 24 h): 100%

Interaction efficiency (%) of each drug with apatite-based matrix [1]: 1.73 ± 0.85% | Interaction efficiency (%) of each drug with the apatite-based matrix ([1]; matrix formed with CaCl2): 1.73 ± 0.85% | Interaction efficiency (%) of each drug with the apatite-based matrix ([1]; matrix formed with SrCl2): 27.76 ± 5.62%
Compound: CN(Cc1cnc2nc(N)nc(N)c2n1)c1ccc(C(=O)N[C@@H](CCC(=O)O)C(=O)O)cc1 [Mtx, methotrexate]

The remaining lines, values behind:

Compound: O=P1(N(CCCl)CCCl)NCCCO1 (stereo not drawn) [Cyp, cyclophosphamide]
Interaction efficiency (%) of each drug with apatite-based matrix [1]: 13.10 ± 5.47% | Interaction efficiency (%) of each drug with the apatite-based matrix ([1]; matrix formed with CaCl2): 13.10 ± 5.47% | Interaction efficiency (%) of each drug with the apatite-based matrix ([1]; matrix formed with SrCl2): 11.19 ± 8.16%

Compound: COc1cccc2c1C(=O)c1c(O)c3c(c(O)c1C2=O)C[C@@](O)(C(=O)CO)C[C@@H]3O[C@H]1C[C@H](N)[C@H](O)[C@H](C)O1 [DOX, doxorubicin]
% Cellular uptake 1 hour of treatment ([2]; DOX 1 μM): 22.4% ± 1.73 | % Cellular uptake 4 hours of treatment ([2]; DOX 1 μM): 31.71% ± 5.92 | % Cellular uptake 1 hour of treatment ([2]; DOX 5 μM): 24.75% ± 0.14 | % Cellular uptake 4 hours of treatment ([2]; DOX 5 μM): 32.07% ± 0.82

Compound: CC(C)(C#N)c1cc(Cn2cncn2)cc(C(C)(C)C#N)c1 [Free anastrozole, anastrozole]
cellular uptake (%) ([3]; anastrozole 20 uM, 1 h): 18.5% ± 2.4 | cellular uptake (%) ([3]; anastrozole 20 uM, 4 h): 47.75% ± 2.3 | cellular uptake (%) ([3]; anastrozole 20 uM, 24 h): 89.5% ± 3
